Assay results taken from ChEMBL document CHEMBL5465560, “Selectivity Literature for EUbOPEN Chemogenomic Library” (2024).

Assays:
[1] = target: Maternal embryonic leucine zipper kinase (Homo sapiens) (UniProt Q14680); assay: Selectivity interaction (Kinase panel (DSF assay)) EUB0001558a MELK
[2] = target: Cyclin-dependent kinase 7 (Homo sapiens, UniProt P50613); assay: Selectivity interaction (KinomeScan (DiscoverX)) EUB0000655a CDK7; settings: at 10 µM
[3] = target: Ribosomal protein S6 kinase alpha-1 (Homo sapiens, UniProt Q15418); assay: Selectivity interaction (KinomeScan (DiscoverX)) EUB0000655a RPS6KA1; settings: at 10 µM
[4] = target: Angiopoietin-1 receptor (Homo sapiens) (UniProt Q02763); assay: (§1) Selectivity interaction (ProQinase) EUB0000171b TEK
[5] = test system: Angiopoietin-1 receptor (Homo sapiens), Q02763 [R849W]; assay: as §1
[6] = test system: Angiopoietin-1 receptor (Homo sapiens), Q02763 [Y897S]; assay: as §1
[7] = target: Serine/threonine-protein kinase SIK3 (Homo sapiens) (UniProt Q9Y2K2); assay: Selectivity interaction (KinomeScan (DiscoverX)) EUB0001079a SIK3; settings: at 1 µM
[8] = target: Calcium/calmodulin-dependent protein kinase type II subunit delta (Homo sapiens) (UniProt Q13557); assay: Selectivity interaction (Kinase panel (KiNativ target engagement assay in Jurkat cells)) EUB0001635a CAMK2D; format: cell-based; settings: Selectivity number of off-targets 0.0, Selectivity number of targets 233.0, Source Knowledge https://www.sciencedirect.com/science/article/pii/S2451945619300674?via%3Dihub, at 1 µM
[9] = target: T1, Tyrosine-protein kinase SYK (Homo sapiens, UniProt P43405); assay: Selectivity interaction (KinomeScan (DiscoverX)) EUB0000666a SYK; settings: at 10 µM
[10] = target: Serine/threonine-protein kinase 32A (Homo sapiens) (UniProt Q8WU08); assay: Selectivity interaction (KinomeScan (DiscoverX)) EUB0000666a STK32A; settings: at 10 µM
[11] = target: Mitogen-activated protein kinase 7 (Homo sapiens) (UniProt Q13164); settings: at 10 µM
[12] = target: Serine/threonine-protein kinase MRCK alpha (Homo sapiens) (UniProt Q5VT25); assay: Selectivity interaction (KinomeScan (DiscoverX)) EUB0000695a CDC42BPA; settings: at 100 nM
[13] = target: T2, Serine/threonine-protein kinase TAO1 (Homo sapiens) (UniProt Q7L7X3); assay: Selectivity interaction (KinomeScan (DiscoverX)) EUB0000595a TAOK1; settings: at 10 µM
T2 sequence (whole entry): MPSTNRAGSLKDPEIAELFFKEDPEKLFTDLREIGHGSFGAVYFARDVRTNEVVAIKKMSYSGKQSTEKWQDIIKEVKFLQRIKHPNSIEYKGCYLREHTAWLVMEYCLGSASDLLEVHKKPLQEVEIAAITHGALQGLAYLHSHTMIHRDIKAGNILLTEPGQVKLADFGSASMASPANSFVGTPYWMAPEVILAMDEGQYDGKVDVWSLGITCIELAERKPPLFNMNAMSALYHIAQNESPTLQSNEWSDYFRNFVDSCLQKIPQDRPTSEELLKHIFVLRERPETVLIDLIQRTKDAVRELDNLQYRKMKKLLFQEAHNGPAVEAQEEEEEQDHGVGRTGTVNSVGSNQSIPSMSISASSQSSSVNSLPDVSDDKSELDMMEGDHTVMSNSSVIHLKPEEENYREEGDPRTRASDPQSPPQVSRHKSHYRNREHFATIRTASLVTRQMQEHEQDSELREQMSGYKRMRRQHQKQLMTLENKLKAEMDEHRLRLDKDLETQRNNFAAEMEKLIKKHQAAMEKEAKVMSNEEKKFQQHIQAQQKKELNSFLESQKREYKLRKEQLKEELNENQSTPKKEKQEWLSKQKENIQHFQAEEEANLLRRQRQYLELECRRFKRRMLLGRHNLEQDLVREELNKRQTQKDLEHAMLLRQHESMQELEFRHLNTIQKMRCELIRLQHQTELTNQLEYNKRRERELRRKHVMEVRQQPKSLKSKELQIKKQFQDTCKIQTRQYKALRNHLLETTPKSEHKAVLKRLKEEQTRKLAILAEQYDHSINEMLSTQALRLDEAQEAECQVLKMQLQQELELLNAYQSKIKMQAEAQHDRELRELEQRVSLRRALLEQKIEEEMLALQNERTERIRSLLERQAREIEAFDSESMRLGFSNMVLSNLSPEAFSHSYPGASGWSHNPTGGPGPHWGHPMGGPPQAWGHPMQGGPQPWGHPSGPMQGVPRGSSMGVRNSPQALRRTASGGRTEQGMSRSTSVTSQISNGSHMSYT

[14] = target: Casein kinase I isoform delta (Homo sapiens, UniProt P48730); assay: Selectivity interaction (Ambit KINOMEscan and KiNATiv profiling in Jurkat cells) EUB0000090b CSNK1D; format: cell-based; settings: at 1 µM
[15] = target: T1, Tyrosine-protein kinase SYK; assay: Selectivity interaction (ActivX KiNativ screen (ex vivo kinase selectivity in human PBMCs)) EUB0001619a SYK; format: cell-based; settings: PBMC, at 1 µM

Angiopoietin-1 receptor (Homo sapiens), Q02763 [R849W], sequence (Q02763 whole entry R849W): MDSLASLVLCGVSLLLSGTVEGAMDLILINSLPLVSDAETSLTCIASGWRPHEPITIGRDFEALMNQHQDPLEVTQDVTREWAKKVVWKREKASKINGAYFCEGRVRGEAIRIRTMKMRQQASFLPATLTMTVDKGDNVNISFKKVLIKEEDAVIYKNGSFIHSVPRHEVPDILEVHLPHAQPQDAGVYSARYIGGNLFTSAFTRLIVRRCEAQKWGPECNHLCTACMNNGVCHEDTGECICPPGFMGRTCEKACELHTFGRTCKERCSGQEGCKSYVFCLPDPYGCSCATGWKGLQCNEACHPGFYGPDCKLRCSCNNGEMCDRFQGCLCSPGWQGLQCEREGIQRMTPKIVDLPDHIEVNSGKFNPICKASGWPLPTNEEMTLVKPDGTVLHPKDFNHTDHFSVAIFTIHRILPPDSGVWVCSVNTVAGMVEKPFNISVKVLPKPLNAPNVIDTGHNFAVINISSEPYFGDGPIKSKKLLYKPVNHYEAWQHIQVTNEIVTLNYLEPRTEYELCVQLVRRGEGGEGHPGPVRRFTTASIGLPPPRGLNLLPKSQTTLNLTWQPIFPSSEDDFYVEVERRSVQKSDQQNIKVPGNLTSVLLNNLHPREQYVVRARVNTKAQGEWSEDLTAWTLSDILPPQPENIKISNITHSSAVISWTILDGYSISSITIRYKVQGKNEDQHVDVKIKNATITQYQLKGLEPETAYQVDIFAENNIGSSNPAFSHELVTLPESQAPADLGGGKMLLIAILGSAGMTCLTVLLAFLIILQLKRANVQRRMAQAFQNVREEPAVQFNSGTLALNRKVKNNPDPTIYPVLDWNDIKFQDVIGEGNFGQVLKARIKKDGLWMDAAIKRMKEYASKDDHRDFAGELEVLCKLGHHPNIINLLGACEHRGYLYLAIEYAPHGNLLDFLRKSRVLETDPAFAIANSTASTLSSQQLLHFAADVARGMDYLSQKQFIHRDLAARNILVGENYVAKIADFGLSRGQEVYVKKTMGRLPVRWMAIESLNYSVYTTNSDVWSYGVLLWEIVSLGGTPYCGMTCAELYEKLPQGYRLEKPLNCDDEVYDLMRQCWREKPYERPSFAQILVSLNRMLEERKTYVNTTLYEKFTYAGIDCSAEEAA
Angiopoietin-1 receptor (Homo sapiens), sequence (Q02763 whole entry): as the sequence (Q02763 whole entry R849W) above, with W849R counted along it
Angiopoietin-1 receptor (Homo sapiens), Q02763 [Y897S], sequence (Q02763 whole entry Y897S): as the sequence (Q02763 whole entry R849W) above, with W849R, Y897S counted along it
Cyclin-dependent kinase 7, sequence (P50613 whole entry): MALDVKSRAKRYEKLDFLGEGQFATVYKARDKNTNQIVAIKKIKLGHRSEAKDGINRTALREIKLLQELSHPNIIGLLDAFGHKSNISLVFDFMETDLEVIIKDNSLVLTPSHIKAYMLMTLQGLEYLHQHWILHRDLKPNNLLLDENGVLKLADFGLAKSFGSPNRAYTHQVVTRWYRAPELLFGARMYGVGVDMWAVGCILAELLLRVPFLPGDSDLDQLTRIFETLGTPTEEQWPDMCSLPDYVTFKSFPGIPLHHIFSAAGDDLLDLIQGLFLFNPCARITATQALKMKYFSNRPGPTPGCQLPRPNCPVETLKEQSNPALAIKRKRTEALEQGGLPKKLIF
Maternal embryonic leucine zipper kinase (Homo sapiens), sequence (Q14680 whole entry, looked up): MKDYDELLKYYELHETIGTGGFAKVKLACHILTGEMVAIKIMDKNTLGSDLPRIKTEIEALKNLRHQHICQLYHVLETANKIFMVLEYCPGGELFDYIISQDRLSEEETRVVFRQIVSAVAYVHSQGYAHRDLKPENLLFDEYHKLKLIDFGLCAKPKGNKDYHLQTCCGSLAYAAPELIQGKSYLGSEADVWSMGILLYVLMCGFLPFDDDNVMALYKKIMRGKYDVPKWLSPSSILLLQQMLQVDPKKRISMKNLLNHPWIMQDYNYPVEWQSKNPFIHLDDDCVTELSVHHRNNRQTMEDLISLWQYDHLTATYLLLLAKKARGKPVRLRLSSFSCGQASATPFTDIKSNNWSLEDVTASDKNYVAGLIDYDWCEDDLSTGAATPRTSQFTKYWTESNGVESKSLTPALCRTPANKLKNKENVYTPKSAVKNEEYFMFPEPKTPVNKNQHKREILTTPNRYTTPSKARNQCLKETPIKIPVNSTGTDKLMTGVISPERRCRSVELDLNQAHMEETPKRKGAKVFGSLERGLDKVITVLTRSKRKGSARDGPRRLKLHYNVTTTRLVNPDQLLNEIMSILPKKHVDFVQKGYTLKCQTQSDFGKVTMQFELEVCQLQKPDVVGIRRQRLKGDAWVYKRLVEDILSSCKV
Casein kinase I isoform delta, sequence (P48730 whole entry, looked up, canonical isoform): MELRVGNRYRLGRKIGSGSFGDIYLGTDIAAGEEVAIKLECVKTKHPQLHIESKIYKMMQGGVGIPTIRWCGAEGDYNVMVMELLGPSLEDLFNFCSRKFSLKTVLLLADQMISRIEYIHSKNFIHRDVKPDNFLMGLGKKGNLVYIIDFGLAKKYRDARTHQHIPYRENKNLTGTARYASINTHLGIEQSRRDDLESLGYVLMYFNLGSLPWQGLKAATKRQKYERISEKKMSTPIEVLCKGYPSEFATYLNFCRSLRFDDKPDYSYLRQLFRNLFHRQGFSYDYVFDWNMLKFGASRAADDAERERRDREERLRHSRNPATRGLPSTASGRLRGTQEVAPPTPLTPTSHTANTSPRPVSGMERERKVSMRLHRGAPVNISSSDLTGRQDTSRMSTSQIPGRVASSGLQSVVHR
Ribosomal protein S6 kinase alpha-1, sequence (Q15418 whole entry): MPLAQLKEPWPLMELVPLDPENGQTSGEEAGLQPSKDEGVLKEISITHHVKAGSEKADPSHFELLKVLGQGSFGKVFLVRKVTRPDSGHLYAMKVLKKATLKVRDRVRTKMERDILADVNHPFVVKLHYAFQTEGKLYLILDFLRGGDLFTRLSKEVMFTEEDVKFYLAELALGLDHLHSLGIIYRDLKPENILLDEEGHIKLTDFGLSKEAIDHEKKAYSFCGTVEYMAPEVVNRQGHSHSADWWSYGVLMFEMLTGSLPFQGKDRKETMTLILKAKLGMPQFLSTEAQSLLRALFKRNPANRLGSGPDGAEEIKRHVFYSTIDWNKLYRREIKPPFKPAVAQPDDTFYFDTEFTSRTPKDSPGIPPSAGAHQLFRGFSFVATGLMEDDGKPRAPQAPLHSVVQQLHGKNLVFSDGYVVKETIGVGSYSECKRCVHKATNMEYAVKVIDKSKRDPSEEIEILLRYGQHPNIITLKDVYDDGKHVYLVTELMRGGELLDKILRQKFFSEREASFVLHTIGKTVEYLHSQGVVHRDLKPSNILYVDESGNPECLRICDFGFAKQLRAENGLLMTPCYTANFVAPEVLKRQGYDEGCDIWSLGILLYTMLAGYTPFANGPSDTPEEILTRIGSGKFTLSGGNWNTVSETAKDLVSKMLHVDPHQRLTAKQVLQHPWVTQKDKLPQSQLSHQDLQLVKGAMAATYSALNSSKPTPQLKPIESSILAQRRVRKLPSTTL
Serine/threonine-protein kinase SIK3 (Homo sapiens), sequence (Q9Y2K2 whole entry, looked up): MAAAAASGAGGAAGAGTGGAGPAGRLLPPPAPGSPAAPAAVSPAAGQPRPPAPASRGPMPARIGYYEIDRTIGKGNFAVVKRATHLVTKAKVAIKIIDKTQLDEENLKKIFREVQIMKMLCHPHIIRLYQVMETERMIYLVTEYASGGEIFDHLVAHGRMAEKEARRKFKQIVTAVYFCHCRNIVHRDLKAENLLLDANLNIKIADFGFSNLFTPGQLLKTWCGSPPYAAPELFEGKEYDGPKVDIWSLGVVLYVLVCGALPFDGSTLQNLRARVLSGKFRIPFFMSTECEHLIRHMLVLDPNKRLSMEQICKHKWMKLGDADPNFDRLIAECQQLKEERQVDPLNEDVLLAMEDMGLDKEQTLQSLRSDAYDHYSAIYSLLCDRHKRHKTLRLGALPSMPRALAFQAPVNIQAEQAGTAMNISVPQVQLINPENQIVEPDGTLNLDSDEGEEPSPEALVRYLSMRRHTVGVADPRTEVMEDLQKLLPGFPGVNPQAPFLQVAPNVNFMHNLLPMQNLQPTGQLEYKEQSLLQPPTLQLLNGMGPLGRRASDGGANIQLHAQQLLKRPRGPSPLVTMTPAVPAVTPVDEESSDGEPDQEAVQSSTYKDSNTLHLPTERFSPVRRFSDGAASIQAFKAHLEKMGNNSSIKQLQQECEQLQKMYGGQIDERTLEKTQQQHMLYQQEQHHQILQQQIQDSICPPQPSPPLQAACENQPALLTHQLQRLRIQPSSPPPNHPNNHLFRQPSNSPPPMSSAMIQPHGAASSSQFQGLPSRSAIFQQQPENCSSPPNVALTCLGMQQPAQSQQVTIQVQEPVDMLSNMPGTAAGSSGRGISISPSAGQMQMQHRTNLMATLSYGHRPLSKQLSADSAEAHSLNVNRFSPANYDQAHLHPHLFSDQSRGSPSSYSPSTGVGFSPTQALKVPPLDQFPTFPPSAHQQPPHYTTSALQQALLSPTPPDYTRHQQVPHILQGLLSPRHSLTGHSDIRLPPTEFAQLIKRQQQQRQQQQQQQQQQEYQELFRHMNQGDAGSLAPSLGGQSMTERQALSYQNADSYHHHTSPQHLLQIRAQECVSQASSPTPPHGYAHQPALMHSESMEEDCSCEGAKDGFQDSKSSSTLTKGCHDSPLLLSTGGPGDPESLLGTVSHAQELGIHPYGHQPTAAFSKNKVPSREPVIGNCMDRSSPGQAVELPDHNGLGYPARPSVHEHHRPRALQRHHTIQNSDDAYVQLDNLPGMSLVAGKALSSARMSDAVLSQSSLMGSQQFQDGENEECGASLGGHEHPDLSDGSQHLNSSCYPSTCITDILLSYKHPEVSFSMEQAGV

CC(C)(O)[C@H](F)CN1Cc2cc(NC(=O)c3cnn4cccnc34)c(N3CCOCC3)cc2C1=O
dTM [1]: 0.9 K

CN(C)CCOc1ccc(-c2nc(-c3ccncc3)c(-c3ccc4c(c3)CC/C4=N\O)[nH]2)cc1
% of control [2]: 93%
% of control [3]: 81%

C=CC(=O)Nc1cccc(C(=O)Nc2ccc(Nc3cc(-c4[nH]c(SC)nc4C)ccn3)cc2)c1
% of control ([4]; at 1 µM): 85%
% of control ([4]; at 5 µM): 81%
% of control ([5]; at 1 µM): 92%
% of control ([5]; at 5 µM): 107%
% of control ([6]; at 1 µM): 85%
% of control ([6]; at 5 µM): 85%

Nc1cnc(N2CCc3cc(S(=O)(=O)Nc4c(F)cc(Cl)cc4F)cc(N4CCCC4=O)c32)nc1 [TP-020n]
% of control [7]: 83%

C=CC(=O)Nc1ccc(C(=O)Nc2[nH]nc3c2CN(C(=O)N[C@H](CN(C)C)c2ccccc2)C3(C)C)cc1
% of engagement [8]: 34.1%

O=C(NOC[C@H](O)CO)c1ccc(F)c(F)c1Nc1ccc(I)cc1F
% of control [9]: 100%
% of control [10]: 80%

Cc1cc([C@@H](C)Nc2ccccc2C(=O)O)c2nc(N3CCOCC3)cc(=O)n2c1 [AZD-6482]
% of control [11]: 100%

Cc1cc(F)c(C(=O)Nc2cccc(-c3nncn3C(C)C)n2)cc1-n1cnc(C2CC2)c1
% of control [12]: 100%

COCC(=O)NC/C=C/c1ccc2ncnc(Nc3ccc(Oc4ccc(C)nc4)c(C)c3)c2c1 [CP-724714]
% of control [13]: 94%

CN(C)C/C=C/C(=O)Nc1ccc(C(=O)N2CCCC(Nc3ncc(Cl)c(-c4c[nH]c5ccccc45)n3)C2)cc1 (stereo not drawn)
% of control [14]: 80%

N#Cc1cccc(-c2c[nH]c3ncnc(N4CCOCC4)c23)c1
% of inhibition [15]: 1%
